PMC5218480 (PLoS ONE, 2017)

Tested on: MV-4-11 cells
Experiment: Gene expression microarray analysis (Affymetrix PrimeView) and GSEA
Type: cell-based, human
Parameters: RFU PODN (11730768_x_at) / Fold change /veh PODN (11730768_x_at) / RFU LINC00158 (11744669_a_at) / Fold change /veh LINC00158 (11744669_a_at) / RFU DUSP10 (11751237_a_at) / Fold change /veh DUSP10 (11751237_a_at) / RFU ID3 (11757404_x_at) / Fold change /veh ID3 (11757404_x_at) / RFU PLEKHG5 (11737974_s_at) / Fold change /veh PLEKHG5 (11737974_s_at) / RFU LRRC4B (11730491_at) / Fold change /veh LRRC4B (11730491_at) / RFU GIMAP4 (11747438_a_at) / Fold change /veh GIMAP4 (11747438_a_at) / RFU KRT8 (11758183_x_at) / Fold change /veh KRT8 (11758183_x_at) / RFU CNN1 (11734310_a_at) / Fold change /veh CNN1 (11734310_a_at) / RFU VPS37D (11726825_at) / Fold change /veh VPS37D (11726825_at) / RFU C10orf10 (11716522_x_at) / Fold change /veh C10orf10 (11716522_x_at) / RFU KIR2DL2 /// KIR2DL4 /// KIR2DL5A /// KIR2DL5B /// KIR2DS1 /// KIR2DS2 /// KIR2DS3 /// KIR2DS4 /// KIR3DL3 /// KIR3DL3 /// KIR3DS1 (11738374_at) / Fold change /veh KIR2DL2 /// KIR2DL4 /// KIR2DL5A /// KIR2DL5B /// KIR2DS1 /// KIR2DS2 /// KIR2DS3 /// KIR2DS4 /// KIR3DL3 /// KIR3DL3 /// KIR3DS1 (11738374_at) / RFU C1QL1 (11718748_at) / Fold change /veh C1QL1 (11718748_at) / RFU TMPRSS4 (11747572_a_at) / Fold change /veh TMPRSS4 (11747572_a_at) / RFU HAMP (11756126_x_at) / Fold change /veh HAMP (11756126_x_at) / RFU RNFT2 (11725882_a_at) / Fold change /veh RNFT2 (11725882_a_at) / RFU NR4A2 (11747474_a_at) / Fold change /veh NR4A2 (11747474_a_at) / RFU ABCC12 (11746883_a_at) / Fold change /veh ABCC12 (11746883_a_at) / RFU TMEM136 (11760407_x_at) / Fold change /veh TMEM136 (11760407_x_at) / RFU CLDN22 /// WWC2 (11732394_at) / Fold change /veh CLDN22 /// WWC2 (11732394_at) / RFU HLA-DPB1 (11760878_x_at) / Fold change /veh HLA-DPB1 (11760878_x_at) / RFU SPINT1 (11716480_a_at) / Fold change /veh SPINT1 (11716480_a_at) / RFU GAP43 (11754022_s_at) / Fold change /veh GAP43 (11754022_s_at) / RFU A4GNT (11735810_at) / Fold change /veh A4GNT (11735810_at) / RFU PRB3 (11715151_x_at) / Fold change /veh PRB3 (11715151_x_at) / RFU TUBB4B (11761932_at) / Fold change /veh TUBB4B (11761932_at) / RFU CAPN14 (11732068_a_at) / Fold change /veh CAPN14 (11732068_a_at) / RFU TMCC2 (11721928_a_at) / Fold change /veh TMCC2 (11721928_a_at) / RFU IRGQ (11745062_a_at) / Fold change /veh IRGQ (11745062_a_at) / RFU FAM174B (11720279_a_at) / Fold change /veh FAM174B (11720279_a_at) / RFU TMPRSS4 (11748680_a_at) / Fold change /veh TMPRSS4 (11748680_a_at) / RFU FAM212B (11763350_a_at) / Fold change /veh FAM212B (11763350_a_at) / RFU PLEKHG5 (11743358_a_at) / Fold change /veh PLEKHG5 (11743358_a_at) / RFU ZSCAN30 (11745921_a_at) / Fold change /veh ZSCAN30 (11745921_a_at) / RFU CMKLR1 (11741424_a_at) / Fold change /veh CMKLR1 (11741424_a_at) / RFU LOC101060620 /// MAPK8IP1 (11723275_at) / Fold change /veh LOC101060620 /// MAPK8IP1 (11723275_at) / RFU SPTSSB (11747773_x_at) / Fold change /veh SPTSSB (11747773_x_at) / RFU PRSS12 (11739890_at) / Fold change /veh PRSS12 (11739890_at) / RFU BIN1 (11741810_x_at) / Fold change /veh BIN1 (11741810_x_at) / RFU WNT11 (11732464_a_at) / Fold change /veh WNT11 (11732464_a_at) / RFU C10orf10 (11716521_a_at) / Fold change /veh C10orf10 (11716521_a_at) / RFU C5orf56 (11738089_at) / Fold change /veh C5orf56 (11738089_at) / RFU CYB561 (11721691_x_at) / Fold change /veh CYB561 (11721691_x_at) / RFU ANKRD19P (11752326_a_at) / Fold change /veh ANKRD19P (11752326_a_at) / RFU OR2T12 /// OR2T33 /// OR2T8 (11738714_s_at) / Fold change /veh OR2T12 /// OR2T33 /// OR2T8 (11738714_s_at) / RFU VCAN (11748164_a_at) / Fold change /veh VCAN (11748164_a_at) / RFU JSRP1 (11732532_at) / Fold change /veh JSRP1 (11732532_at) / RFU KRTAP10-11 (11738290_x_at) / Fold change /veh KRTAP10-11 (11738290_x_at) / RFU MYO3A (11730013_a_at) / Fold change /veh MYO3A (11730013_a_at) / RFU EBF3 (11725865_a_at) / Fold change /veh EBF3 (11725865_a_at) / RFU CAMK2N1 (11719241_x_at) / Fold change /veh CAMK2N1 (11719241_x_at) / RFU C5orf56 (11738088_a_at) / Fold change /veh C5orf56 (11738088_a_at) / RFU OLFML3 (11715873_a_at) / Fold change /veh OLFML3 (11715873_a_at) / RFU LOC100653217 /// NTM (11731650_a_at) / Fold change /veh LOC100653217 /// NTM (11731650_a_at) / RFU MAPK11 (11762145_a_at) / Fold change /veh MAPK11 (11762145_a_at) / RFU FIZ1 (11724087_x_at) / Fold change /veh FIZ1 (11724087_x_at) / RFU OASL (11726364_x_at) / Fold change /veh OASL (11726364_x_at) / RFU SOX15 (11748057_x_at) / Fold change /veh SOX15 (11748057_x_at) / RFU CD79A (11719716_a_at) / Fold change /veh CD79A (11719716_a_at) / RFU HIST1H1D (11736915_at) / Fold change /veh HIST1H1D (11736915_at) / RFU CASKIN2 (11723855_a_at) / Fold change /veh CASKIN2 (11723855_a_at) / RFU LOC730098 (11760151_x_at) / Fold change /veh LOC730098 (11760151_x_at) / RFU OR4N2 (11742367_at) / Fold change /veh OR4N2 (11742367_at) / RFU PRRT2 (11749266_a_at) / Fold change /veh PRRT2 (11749266_a_at) / RFU SNX32 (11753110_a_at) / Fold change /veh SNX32 (11753110_a_at) / RFU CDHR5 (11726645_a_at) / Fold change /veh CDHR5 (11726645_a_at) / RFU RCAN1 (11760418_a_at) / Fold change /veh RCAN1 (11760418_a_at) / RFU FAM167A (11723789_a_at) / Fold change /veh FAM167A (11723789_a_at) / RFU FAM26E (11764081_at) / Fold change /veh FAM26E (11764081_at) / RFU ISYNA1 (11749810_s_at) / Fold change /veh ISYNA1 (11749810_s_at) / RFU ACY1 (11761880_at) / Fold change /veh ACY1 (11761880_at) / RFU 11764098_at / Fold change /veh 11764098_at / RFU SAMD14 (11745864_x_at) / Fold change /veh SAMD14 (11745864_x_at) / RFU NPB (11741838_a_at) / Fold change /veh NPB (11741838_a_at) / RFU TMPRSS6 (11731388_a_at) / Fold change /veh TMPRSS6 (11731388_a_at) / RFU KRTAP10-2 (11738614_at) / Fold change /veh KRTAP10-2 (11738614_at) / RFU ARHGAP8 /// PRR5-ARHGAP8 (11727945_x_at) / Fold change /veh ARHGAP8 /// PRR5-ARHGAP8 (11727945_x_at) / RFU KRTAP5-7 /// NADSYN1 (11734609_at) / Fold change /veh KRTAP5-7 /// NADSYN1 (11734609_at) / RFU RASL12 (11751679_a_at) / Fold change /veh RASL12 (11751679_a_at) / RFU CDKN2B (11736163_a_at) / Fold change /veh CDKN2B (11736163_a_at) / RFU PRF1 (11729649_at) / Fold change /veh PRF1 (11729649_at) / RFU, ZNF638 /// ZNF638-IT1 / Fold change vs veh, ZNF638 /// ZNF638-IT1 / RFU, PANK3 / Fold change vs veh, PANK3 / RFU, SH3YL1 / Fold change vs veh, SH3YL1 / RFU, ZEB2 / Fold change vs veh, ZEB2 / RFU, NRIP1 / Fold change vs veh, NRIP1 / RFU, PTTG1IP / Fold change vs veh, PTTG1IP / RFU, CAPN2 / Fold change vs veh, CAPN2 / RFU, MED14 / Fold change vs veh, MED14 / RFU, SNORA58 / Fold change vs veh, SNORA58 / RFU, C1orf63 / Fold change vs veh, C1orf63 / RFU, LRRFIP1 / Fold change vs veh, LRRFIP1 / RFU, NDUFAF7 / Fold change vs veh, NDUFAF7 / RFU, SLC12A2 / Fold change vs veh, SLC12A2 / RFU, IBTK / Fold change vs veh, IBTK / RFU, ESF1 / Fold change vs veh, ESF1 / Fold change vs veh, TMEM50B / RFU, TAOK1 / Fold change vs veh, TAOK1 / RFU, ACBD3 / Fold change vs veh, ACBD3 / RFU, TMA16 / Fold change vs veh, TMA16 / RFU, RWDD3 / Fold change vs veh, RWDD3 / RFU, BCAT1 / Fold change vs veh, BCAT1 / RFU, EDEM3 / Fold change vs veh, EDEM3 / RFU, TMEM33 / Fold change vs veh, TMEM33 / RFU, WDR75 / Fold change vs veh, WDR75 / RFU, AHCTF1 / Fold change vs veh, AHCTF1 / RFU, TFRC / Fold change vs veh, TFRC / RFU, ZDHHC17 / Fold change vs veh, ZDHHC17 / RFU, NOM1 / Fold change vs veh, NOM1 / RFU, ARL8B / Fold change vs veh, ARL8B / RFU, ZBTB11 / Fold change vs veh, ZBTB11 / RFU, TAMM41 / Fold change vs veh, TAMM41 / RFU, KIAA1704 /// LOC100996395 / Fold change vs veh, KIAA1704 /// LOC100996395 / RFU, ING1 / Fold change vs veh, ING1 / RFU, TRMT61B / Fold change vs veh, TRMT61B / RFU, FUBP3 / Fold change vs veh, FUBP3 / RFU, TP53 / Fold change vs veh, TP53 / RFU, TNKS2 / Fold change vs veh, TNKS2 / RFU, ZFP14 / Fold change vs veh, ZFP14 / RFU, ACTR2 / Fold change vs veh, ACTR2 / RFU, PPP3R1 / Fold change vs veh, PPP3R1 / RFU, PIK3R1 / Fold change vs veh, PIK3R1 / RFU, HNRNPA1 / Fold change vs veh, HNRNPA1 / RFU, RNF170 / Fold change vs veh, RNF170 / RFU, ZNF28 / Fold change vs veh, ZNF28 / RFU, RNGTT / Fold change vs veh, RNGTT / RFU, OGT / Fold change vs veh, OGT / RFU, BRD1 / Fold change vs veh, BRD1 / RFU, MARS / Fold change vs veh, MARS / RFU, ZNF655 / Fold change vs veh, ZNF655 / RFU, FAHD1 / Fold change vs veh, FAHD1 / RFU, BDP1 / Fold change vs veh, BDP1 / RFU, LRRCC1 / Fold change vs veh, LRRCC1 / RFU, ARID1A / Fold change vs veh, ARID1A / RFU, ZNF146 / Fold change vs veh, ZNF146 / RFU, ZNF330 / Fold change vs veh, ZNF330 / RFU, GPN3 / Fold change vs veh, GPN3 / RFU, C9orf123 / Fold change vs veh, C9orf123 / RFU, N4BP2L2 / Fold change vs veh, N4BP2L2 / RFU, ARFIP1 / Fold change vs veh, ARFIP1 / RFU, FAM179B / Fold change vs veh, FAM179B / RFU, BCL10 / Fold change vs veh, BCL10 / RFU, UHRF1BP1L / Fold change vs veh, UHRF1BP1L / RFU, BET1 / Fold change vs veh, BET1 / RFU, CNOT2 / Fold change vs veh, CNOT2 / RFU, ZNF268 / Fold change vs veh, ZNF268 / Fold change vs veh, ZNF507 / RFU, DGCR2 / Fold change vs veh, DGCR2 / RFU, WDSUB1 / Fold change vs veh, WDSUB1 / Fold change vs veh, HSP90B1 /// MIR3652 / RFU, ADSS / Fold change vs veh, ADSS / RFU, GK / Fold change vs veh, GK / RFU, ZNF148 / Fold change vs veh, ZNF148 / RFU, TAF9 / Fold change vs veh, TAF9 / RFU, SLC1A5 / Fold change vs veh, SLC1A5 / RFU, SLMO2 / Fold change vs veh, SLMO2 / RFU, ABCC4 / Fold change vs veh, ABCC4 / RFU, LOC101060439 /// RAP1B / Fold change vs veh, LOC101060439 /// RAP1B / RFU, RFX7 / Fold change vs veh, RFX7 / RFU, GTPBP10 / Fold change vs veh, GTPBP10 / RFU, CNEP1R1 / Fold change vs veh, CNEP1R1 / RFU, BIVM-ERCC5 /// ERCC5 / Fold change vs veh, BIVM-ERCC5 /// ERCC5 / RFU, ILF3 / Fold change vs veh, ILF3 / RFU 11762660_at / Fold change /veh 11762660_at / RFU VCAN (11757783_s_at) / Fold change /veh VCAN (11757783_s_at) / RFU DDX43 (11728927_at) / Fold change /veh DDX43 (11728927_at) / RFU KRT8 (11758188_x_at) / Fold change /veh KRT8 (11758188_x_at) / RFU NKD1 (11759106_at) / Fold change /veh NKD1 (11759106_at) / RFU SRD5A1 (11742802_a_at) / Fold change /veh SRD5A1 (11742802_a_at) / RFU TPSAB1 /// TPSB2 (11721975_s_at) / Fold change /veh TPSAB1 /// TPSB2 (11721975_s_at) / RFU GSTM3 (11746129_a_at) / Fold change /veh GSTM3 (11746129_a_at) / RFU IL23R (11737362_x_at) / Fold change /veh IL23R (11737362_x_at) / RFU TMEM51 (11727254_a_at) / Fold change /veh TMEM51 (11727254_a_at) / RFU PIWIL2 (11732686_x_at) / Fold change /veh PIWIL2 (11732686_x_at) / RFU ORM1 (11744905_x_at) / Fold change /veh ORM1 (11744905_x_at) / RFU CCDC152 (11743942_at) / Fold change /veh CCDC152 (11743942_at) / RFU ECM1 (11717891_a_at) / Fold change /veh ECM1 (11717891_a_at) / RFU IL23R (11748794_a_at) / Fold change /veh IL23R (11748794_a_at) / RFU TNFAIP8L3 (11732012_x_at) / Fold change /veh TNFAIP8L3 (11732012_x_at) / RFU MBOAT4 (11741988_at) / Fold change /veh MBOAT4 (11741988_at) / RFU 11764193_at / Fold change /veh 11764193_at / RFU TMEM53 (11763286_at) / Fold change /veh TMEM53 (11763286_at) / RFU MAGEB2 (11727129_at) / Fold change /veh MAGEB2 (11727129_at) / RFU TMEM200A (11744735_a_at) / Fold change /veh TMEM200A (11744735_a_at) / RFU CCDC152 (11751479_a_at) / Fold change /veh CCDC152 (11751479_a_at) / RFU FAM211A (11726209_a_at) / Fold change /veh FAM211A (11726209_a_at) / RFU RGS16 (11746705_a_at) / Fold change /veh RGS16 (11746705_a_at) / RFU VCAN (11755009_s_at) / Fold change /veh VCAN (11755009_s_at) / RFU RHOB (11743442_s_at) / Fold change /veh RHOB (11743442_s_at) / RFU RGS16 (11720943_a_at) / Fold change /veh RGS16 (11720943_a_at) / RFU RGS16 (11720944_at) / Fold change /veh RGS16 (11720944_at) / RFU, VPS4B / Fold change vs veh, VPS4B / RFU, CREB1 / Fold change vs veh, CREB1 / RFU, DNAJC13 / Fold change vs veh, DNAJC13 / RFU, GNAQ / Fold change vs veh, GNAQ / RFU, CDK5R1 / Fold change vs veh, CDK5R1 / RFU, ZRANB3 / Fold change vs veh, ZRANB3 / RFU, CUL4A / Fold change vs veh, CUL4A / RFU, CCNY / Fold change vs veh, CCNY / RFU, UFL1 / Fold change vs veh, UFL1 / RFU, COG3 / Fold change vs veh, COG3 / RFU, DIAPH2 / Fold change vs veh, DIAPH2 / RFU, SKA2 / Fold change vs veh, SKA2 / RFU, AFF3 / Fold change vs veh, AFF3 / RFU, LMF1 / Fold change vs veh, LMF1 / RFU, IPO11 / Fold change vs veh, IPO11 / RFU, DFFB / Fold change vs veh, DFFB / RFU, FOXP1 / Fold change vs veh, FOXP1 / RFU, CARD8 / Fold change vs veh, CARD8 / RFU, STRN3 / Fold change vs veh, STRN3 / RFU, ADK / Fold change vs veh, ADK / RFU, RASSF2 / Fold change vs veh, RASSF2 / RFU, WIPF1 / Fold change vs veh, WIPF1 / RFU, LARP1B / Fold change vs veh, LARP1B / RFU, RASA1 / Fold change vs veh, RASA1 / RFU, RB1 / Fold change vs veh, RB1 / RFU, PPFIA1 / Fold change vs veh, PPFIA1 / RFU, MAT2A / Fold change vs veh, MAT2A / RFU, CCT5 / Fold change vs veh, CCT5 / RFU, WDR92 / Fold change vs veh, WDR92 / RFU, CUX1 / Fold change vs veh, CUX1 / RFU, TTC7A / Fold change vs veh, TTC7A / RFU, TMEM135 / Fold change vs veh, TMEM135 / RFU, DEPTOR / Fold change vs veh, DEPTOR / RFU, CPM / Fold change vs veh, CPM / RFU, DNAJB6 / Fold change vs veh, DNAJB6 / RFU, CACNA2D3 / Fold change vs veh, CACNA2D3 / RFU, DTX4 / Fold change vs veh, DTX4 / RFU, TFCP2 / Fold change vs veh, TFCP2 / RFU, GMCL1 /// GMCL1P1 / Fold change vs veh, GMCL1 /// GMCL1P1 / RFU, AEBP2 / Fold change vs veh, AEBP2 / RFU, SNHG1 /// SNORD22 /// SNORD25 /// SNORD26 /// SNORD27 /// SNORD28 /// SNORD29 /// SNORD31 / Fold change vs veh, SNHG1 /// SNORD22 /// SNORD25 /// SNORD26 /// SNORD27 /// SNORD28 /// SNORD29 /// SNORD31 / Fold change (Aza/veh), C12orf56 (ProbeSet 11735607_a_at) / Fold change (ACY-1035/veh), C12orf56 (ProbeSet 11735607_a_at) / Fold change (Aza/veh), FGFR1OP (ProbeSet 11751329_s_at) / Fold change (ACY-1035/veh), FGFR1OP (ProbeSet 11751329_s_at) / Fold change (Aza/veh), VPS36 (ProbeSet 11739960_a_at) / Fold change (ACY-1035/veh), VPS36 (ProbeSet 11739960_a_at) / RFU SYPL1 (11715823_x_at) / Fold change /veh SYPL1 (11715823_x_at) / RFU IGFBP7 (11715501_s_at) / Fold change /veh IGFBP7 (11715501_s_at) / RFU REEP3 (11722064_at) / Fold change /veh REEP3 (11722064_at) / RFU IGLL1 (11728026_x_at) / Fold change /veh IGLL1 (11728026_x_at): dose or concentration left out as unconfirmed
Details: ProbeSet 11725885_a_at; LIST B

Nc1ccc(-c2cccs2)cc1NC(=O)c1ccc2c(c1)cc(C1CC1)n2CCN1CCOCC1 [ACY-1035]
RFU, CNEP1R1: 81.80 RFU
